Measurements: US10981894B2, “Melanocortin subtype-2 receptor (MC2R) antagonists and uses thereof” (Crinetics Pharmaceuticals, Inc., priority 2018, dated 2021)

Target: hMC2 receptor (Homo sapiens, UniProt Q01718)
Assay: hMC2 membrane binding assay ([125I]ACTH (1-39) Tyr23, SPA)
Design: scale not given here
Details: crude hMC2R membranes from CRE-bla-CHO-K1 cells expressing hMC2 receptor and hMRAP; [125I]ACTH (1-39) Tyr23 0.2 nM; 1.5 hours at room temperature; read-out: MC2R binding potency
Outline: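 Ki comes from non-linear regression of SPA scintillation counts. Displacement of 0.2 nM [125I]ACTH(1-39) Tyr23 by compound dose series (usually 0–10,000 nM final) ran 1.5 h at room temperature. Membranes came from CHO-K1 CRE-bla cells stably expressing hMC2R plus hMRAP, bead-coupled in pH 7.4 buffer with 0.2% BSA.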

Chain of hMC2 receptor (Q01718 whole entry): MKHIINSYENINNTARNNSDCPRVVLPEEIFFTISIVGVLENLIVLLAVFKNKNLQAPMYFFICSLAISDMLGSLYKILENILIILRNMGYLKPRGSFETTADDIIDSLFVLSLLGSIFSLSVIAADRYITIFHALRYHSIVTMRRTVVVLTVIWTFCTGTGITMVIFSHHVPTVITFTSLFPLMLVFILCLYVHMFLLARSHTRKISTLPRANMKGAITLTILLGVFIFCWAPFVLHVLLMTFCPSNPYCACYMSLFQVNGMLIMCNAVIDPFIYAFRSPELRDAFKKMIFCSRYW
Chain of hMC2 receptor (Q8TCY5 whole entry partner): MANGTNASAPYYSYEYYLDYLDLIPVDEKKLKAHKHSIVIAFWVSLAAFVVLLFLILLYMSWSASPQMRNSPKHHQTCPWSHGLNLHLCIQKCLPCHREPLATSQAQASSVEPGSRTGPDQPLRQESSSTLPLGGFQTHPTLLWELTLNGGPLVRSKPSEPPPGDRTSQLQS

With `CCOc1ncccc1-c1ccc(N2CCN(C(=O)N3CCCC[C@H]3C(F)(F)F)C[C@H]2CC)c(C(=O)N[C@H]2CCN(C)C2)n1` [Compound 1-434, 2′-ethoxy-5-[(2R)-2-ethyl-4-[(2S)-2-(trifluoromethyl)piperidine-1-carbonyl]piperazin-1-yl]-N-[(3S)-1-methylpyrrolidin-3-yl]-[2,3′-bipyridine]-6-carboxamide] the Ki was < 10 nM.
`CCOc1ccccc1-c1ccc(N2CCN(C(=O)N3CCCC[C@H]3C(F)(F)F)C[C@H]2CC)c(C(=O)N[C@H]2CCN(C)C2)n1` [Compound 1-435, 6-(2-ethoxyphenyl)-3-[(2R)-2-ethyl-4-[(2S)-2-(trifluoromethyl)piperidine-1-carbonyl]piperazin-1-yl]-N-[(3S)-1-methylpyrrolidin-3-yl]pyridine-2-carboxamide] was tested, and the Ki was < 10 nM.
`CCOc1ncccc1-c1ccc(N2CCN(C(=O)n3ccc4cccc(C(F)(F)F)c43)C[C@H]2CC)c(C(=O)N[C@@H]2CCN(C)C2)n1` [Compound 1-436, 2′-ethoxy-5-[(2R)-2-ethyl-4-[7-(trifluoromethyl)-1H-indole-1l-carbonyl]piperazin-1-yl]-N-[(3R)-1-methylpyrrolidin-3-yl]-[2,3′-bipyridine]-6-carboxamide] was tested, and the Ki was < 10 nM.
`CCOc1ccccc1-c1ccc(N2CCN(C(=O)n3ccc4cccc(C(F)(F)F)c43)C[C@H]2CC)c(C(=O)N[C@@H]2CCN(C)C2)n1` [Compound 1-437, 6-(2-ethoxyphenyl)-3-[(2R)-2-ethyl-4-[7-(trifluoromethyl)-1H-indole-1l-carbonyl]piperazin-1-yl]-N-[(3R)-1-methylpyrrolidin-3-yl]pyridine-2-carboxamide] was tested, and the Ki was < 10 nM.
`CCOc1ncccc1-c1ccc(N2CCN(C(=O)n3ccc4cc(F)cc(C#N)c43)C[C@H]2CC)c(C(=O)N[C@@H]2CCN(C)C2)n1` [Compound 1-438, 5-[(2R)-4-(7-cyano-5-fluoro-1H-indole-1-carbonyl)-2-ethylpiperazin-1-yl]-2′-ethoxy-N-[(3R)-1-methylpyrrolidin-3-yl]-[2,3′-bipyridine]-6-carboxamide] was tested, and the Ki was < 10 nM.
In the case of `CCOc1ccccc1-c1ccc(N2CCN(C(=O)n3ccc4cc(F)cc(C#N)c43)C[C@H]2CC)c(C(=O)N[C@@H]2CCN(C)C2)n1` [Compound 1-439, 3-[(2R)-4-(7-cyano-5-fluoro-1H-indole-1l-carbonyl)-2-ethylpiperazin-1-yl]-6-(2-ethoxyphenyl)-N-[(3R)-1-methylpyrrolidin-3-yl]pyridine-2-carboxamide], the Ki is reported as < 10 nM.
For `CCOc1ccccc1-c1ccc(N2CCN(C(=O)c3ccc(C(F)(F)F)cc3Cl)C[C@H]2CC)c(CNC[C@H](C)O)c1` [Compound 2-2, (2S)-1-[({4-[(2R)-4-[2-chloro-4-(trifluoromethyl)benzoyl]-2-ethylpiperazin-1-yl]-2′-ethoxy-[1,1′-biphenyl]-3-yl}methyl)amino]propan-2-ol], the Ki was < 10 nM.
For `CC[C@@H]1CN(C(=O)c2ccc(Cl)cc2C(F)(F)F)CCN1c1ccc(-c2ccccc2OC)cc1CN` [Compound 2-3, 1-{4-[(2R)-4-[4-chloro-2-(trifluoromethyl)benzoyl]-2-ethylpiperazin-1-yl]-2′-methoxy-[1,1′-biphenyl]-3-yl}methanamine], the Ki was 10 to 100 nM.
With `CCOc1ncccc1-c1ccc(N2CCN(C(=O)c3ccc(Cl)cc3C(F)(F)F)C[C@H]2CC)c(CN)n1` [Compound 2-13, 1-{5-[(2R)-4-[4-chloro-2-(trifluoromethyl)benzoyl]-2-ethylpiperazin-1-yl]-2′-ethoxy-[2,3′-bipyridin]-6-yl}methanamine] the Ki was < 10 nM.
With `CCOc1ncccc1-c1ccc(N2CCN(C(=O)c3ccc(Cl)cc3C(F)(F)F)C[C@H]2CC)c(CNC)n1` [Compound 2-16, ({5-[(2R)-4-[4-chloro-2-(trifluoromethyl)benzoyl]-2-ethylpiperazin-1-yl]-2′-ethoxy-[2,3′-bipyridin]-6-yl}methyl)(methyl)amine] the Ki was < 10 nM.
In the case of `CCOc1ncccc1-c1ccc(N2CCN(C(=O)c3ccc(F)cc3C(F)(F)F)C[C@H]2CC)c(CN)n1` [Compound 2-20, 1-{2′-ethoxy-5-[(2R)-2-ethyl-4-[4-fluoro-2-(trifluoromethyl)benzoyl]piperazin-1-yl]-[2,3′-bipyridin]-6-yl}methanamine], the Ki is reported as < 10 nM.
For `CCOc1ncccc1-c1ccc(N2CCN(C(=O)c3ccc(F)cc3C(F)(F)F)C[C@H]2CC)c(CNCCNC)c1` [Compound 2-21, {[5-(2-ethoxypyridin-3-yl)-2-[(2R)-2-ethyl-4-[4-fluoro-2-(trifluoromethyl)benzoyl]piperazin-1-yl]phenyl]methyl}[2-(methylamino)ethyl]amine], the Ki was < 10 nM.
With `CCOc1ccc(C(=O)N2CCN(c3ccc(-c4cccnc4OCC)nc3CN)[C@H](CC)C2)c(C(F)(F)F)c1` [Compound 2-25, 1-{2′-ethoxy-5-[(2R)-4-[4-ethoxy-2-(trifluoromethyl)benzoyl]-2-ethylpiperazin-1-yl]-[2,3′-bipyridin]-6-yl}methanamine] the Ki was < 10 nM.
In the case of `CCOc1ccc(C(=O)N2CCN(c3ccc(-c4cccnc4OCC)nc3CN)[C@H](CC)C2)c(C(F)(F)F)n1` [Compound 2-30], the Ki is reported as < 10 nM.
In the case of `CCOc1ncccc1-c1ccc(N2CCN(C(=O)c3ccc(OC)nc3C(F)(F)F)C[C@H]2CC)c(CN)n1` [Compound 2-31, 1-{2′-ethoxy-5-[(2R)-2-ethyl-4-[6-methoxy-2-(trifluoromethyl)pyridine-3-carbonyl]piperazin-1-yl]-[2,3′-bipyridin]-6-yl}methanamine], the Ki is reported as < 10 nM.
